Reference: ChEMBL document CHEMBL1201862, “PubChem BioAssay data set” (2004)
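Briefly, cells in 96-well plates were exposed to five compound concentrations for 48 h, and endpoints were estimated by linear interpolation. GI50: concentration for 50% inhibition of growth.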 Activity calls are given as the source filed them. Cut-off read from the data, not from the text of the source: active = GI50 up to about 1.1 µM and inactive = higher.

How the values were obtained:
Assay in all cases: NCI-60 cell line screen, 48 h
786-0 = test system: 786-0
A498 = test system: A498
A549 = test system: A549
ACHN = test system: ACHN
CCRF-CEM = test system: CCRF-CEM
COLO 205 = test system: COLO 205
DLD-1 = test system: DLD-1
DMS-114 = test system: DMS-114
EKVX = test system: EKVX
HCC 2998 = test system: HCC 2998
HCT-116 = test system: HCT-116
HCT-15 = test system: HCT-15
HL-60 = test system: HL-60
HOP-18 = test system: HOP-18
HOP-62 = test system: HOP-62
HOP-92 = test system: HOP-92
HT-29 = test system: HT-29
IGROV-1 = test system: IGROV-1
K562 = test system: K562
KM-20L2 = test system: KM-20L2
KM12 = test system: KM12
LXFL 529 = test system: LXFL 529
M14 = test system: M14
M19-MEL = test system: M19-MEL
MOLT-4 = test system: MOLT-4
Malme-3M = test system: Malme-3M
NCI-H23 = test system: NCI-H23
NCI-H460 = test system: NCI-H460
NCI-H522 = test system: NCI-H522
OVCAR-5 = test system: OVCAR-5
OVCAR-8 = test system: OVCAR-8
RPMI-8226 = test system: RPMI-8226
RXF 393 = test system: RXF 393
SF-268 = test system: SF-268
SF-295 = test system: SF-295
SF-539 = test system: SF-539
SK-MEL-28 = test system: SK-MEL-28
SK-MEL-2 = test system: SK-MEL-2
SK-MEL-5 = test system: SK-MEL-5
SN12C = test system: SN12C
SNB-19 = test system: SNB-19
SNB-75 = test system: SNB-75
SNB-78 = test system: SNB-78
SW-620 = test system: SW-620
TK-10 = test system: TK-10
U-251 = test system: U-251
UACC-257 = test system: UACC-257
UACC-62 = test system: UACC-62
UO-31 = test system: UO-31
CAKI-1 = test system: CAKI-1
DMS-273 = test system: DMS-273
LOX IMVI = test system: LOX IMVI
NCI-H226 = test system: NCI-H226
OVCAR-3 = test system: OVCAR-3
OVCAR-4 = test system: OVCAR-4
SK-OV-3 = test system: SK-OV-3
SR = test system: SR

Structure (SMILES): CC1=N/C(=C\c2cccc([N+](=O)[O-])c2)C(=O)O1
- GI50 (786-0): > 100 µM (inactive)
- GI50 (A498): > 100 µM (inactive)
- GI50 (A549): > 100 µM (inactive)
- GI50 (ACHN): > 100 µM (inactive)
- GI50 (CCRF-CEM): > 100 µM (inactive)
- GI50 (COLO 205): > 100 µM (inactive)
- GI50 (DLD-1): > 100 µM (inactive)
- GI50 (DMS-114): > 100 µM (inactive)
- GI50 (EKVX): > 100 µM (inactive)
- GI50 (HCC 2998): > 100 µM (inactive)
- GI50 (HCT-116): > 100 µM (inactive)
- GI50 (HCT-15): > 100 µM
- GI50 (HL-60): > 100 µM (inactive)
- GI50 (HOP-18): > 100 µM (inactive)
- GI50 (HOP-62): > 100 µM (inactive)
- GI50 (HOP-92): > 100 µM (inactive)
- GI50 (HT-29): > 100 µM (inactive)
- GI50 (IGROV-1): > 100 µM (inactive)
- GI50 (K562): > 100 µM (inactive)
- GI50 (KM-20L2): > 100 µM (inactive)
- GI50 (KM12): > 100 µM (inactive)
- GI50 (LXFL 529): > 100 µM (inactive)
- GI50 (M14): > 100 µM (inactive)
- GI50 (M19-MEL): > 100 µM (inactive)
- GI50 (MOLT-4): > 100 µM (inactive)
- GI50 (Malme-3M): > 100 µM (inactive)
- GI50 (NCI-H23): > 100 µM (inactive)
- GI50 (NCI-H460): > 100 µM (inactive)
- GI50 (NCI-H522): > 100 µM (inactive)
- GI50 (OVCAR-5): > 100 µM (inactive)
- GI50 (OVCAR-8): > 100 µM (inactive)
- GI50 (RPMI-8226): > 100 µM (inactive)
- GI50 (RXF 393): > 100 µM (inactive)
- GI50 (SF-268): > 100 µM (inactive)
- GI50 (SF-295): > 100 µM (inactive)
- GI50 (SF-539): > 100 µM (inactive)
- GI50 (SK-MEL-28): > 100 µM (inactive)
- GI50 (SK-MEL-2): > 100 µM (inactive)
- GI50 (SK-MEL-5): > 100 µM (inactive)
- GI50 (SN12C): > 100 µM (inactive)
- GI50 (SNB-19): > 100 µM (inactive)
- GI50 (SNB-75): 15.1 µM (inactive)
- GI50 (SNB-78): 86.1 µM (inactive)
- GI50 (SW-620): > 100 µM (inactive)
- GI50 (TK-10): > 100 µM (inactive)
- GI50 (U-251): > 100 µM (inactive)
- GI50 (UACC-257): > 100 µM (inactive)
- GI50 (UACC-62): > 100 µM (inactive)
- GI50 (UO-31): > 100 µM (inactive)

Structure (SMILES): O=C(NS(=O)(=O)c1ccccc1)C(Cc1ccccc1)C(Cc1ccccc1)C(=O)NS(=O)(=O)c1ccccc1 (centres undefined)
- GI50 (786-0): > 100 µM (inactive)
- GI50 (A498): > 100 µM (inactive)
- GI50 (A549): > 100 µM (inactive)
- GI50 (ACHN): > 100 µM (inactive)
- GI50 (CAKI-1): > 100 µM (inactive)
- GI50 (CCRF-CEM): > 100 µM (inactive)
- GI50 (COLO 205): > 100 µM (inactive)
- GI50 (DLD-1): > 100 µM (inactive)
- GI50 (DMS-114): > 100 µM (inactive)
- GI50 (DMS-273): > 100 µM (inactive)
- GI50 (EKVX): > 100 µM (inactive)
- GI50 (HCC 2998): > 100 µM (inactive)
- GI50 (HCT-116): > 100 µM (inactive)
- GI50 (HL-60): > 100 µM (inactive)
- GI50 (HOP-18): > 100 µM (inactive)
- GI50 (HOP-62): > 100 µM (inactive)
- GI50 (HOP-92): > 100 µM (inactive)
- GI50 (HT-29): > 100 µM (inactive)
- GI50 (IGROV-1): > 100 µM (inactive)
- GI50 (K562): > 100 µM (inactive)
- GI50 (KM-20L2): > 100 µM (inactive)
- GI50 (KM12): > 100 µM (inactive)
- GI50 (LOX IMVI): > 100 µM (inactive)
- GI50 (LXFL 529): > 100 µM (inactive)
- GI50 (M14): > 100 µM (inactive)
- GI50 (M19-MEL): > 100 µM (inactive)
- GI50 (MOLT-4): > 100 µM (inactive)
- GI50 (Malme-3M): > 100 µM (inactive)
- GI50 (NCI-H226): 62.4 µM (inactive)
- GI50 (NCI-H23): > 100 µM (inactive)
- GI50 (NCI-H460): > 100 µM (inactive)
- GI50 (NCI-H522): > 100 µM (inactive)
- GI50 (OVCAR-3): > 100 µM (inactive)
- GI50 (OVCAR-4): > 100 µM (inactive)
- GI50 (OVCAR-5): > 100 µM (inactive)
- GI50 (OVCAR-8): > 100 µM (inactive)
- GI50 (RPMI-8226): > 100 µM (inactive)
- GI50 (RXF 393): > 100 µM (inactive)
- GI50 (SF-268): > 100 µM (inactive)
- GI50 (SF-295): > 100 µM (inactive)
- GI50 (SF-539): > 100 µM (inactive)
- GI50 (SK-MEL-28): > 100 µM (inactive)
- GI50 (SK-MEL-2): > 100 µM (inactive)
- GI50 (SK-MEL-5): > 100 µM (inactive)
- GI50 (SK-OV-3): > 100 µM (inactive)
- GI50 (SN12C): > 100 µM (inactive)
- GI50 (SNB-19): > 100 µM (inactive)
- GI50 (SNB-75): > 100 µM (inactive)
- GI50 (SR): > 100 µM (inactive)
- GI50 (SW-620): > 100 µM (inactive)
- GI50 (TK-10): > 100 µM (inactive)
- GI50 (U-251): > 100 µM (inactive)
- GI50 (UACC-257): > 100 µM (inactive)
- GI50 (UACC-62): > 100 µM (inactive)
- GI50 (UO-31): > 100 µM (inactive)
